Test results reported in PubChem BioAssay AID1963842 (Molecular Pharmacology Branch, DTP, NCI, 2024).

Test system: 677734-321-R-J1-PDC complex spheroid viability
Assay: Anticancer human tumor 677734-321-R-J1-PDC patient-derived soft tissue sarcoma cell line growth inhibition [POLQ]
Conditions: for IC50: curve of first compound; for viability, T/C: stronger effect = lower value
How it was run: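 Growth inhibition in 3D: complex spheroids (tumor PDC, HUVEC, MSC) treated with POLQ inhibitor combinations; where Cmax unknown, highest tested concentration 10 microM, except SN-38 at 1 microM.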

[1] = second compound 0.0316 µM, first compound 0.0316 µM
[2] = second compound 0.0316 µM, first compound 0.1 µM
[3] = second compound 0.0316 µM, first compound 0.316 µM
[4] = second compound 0.0316 µM, first compound 1 µM
[5] = second compound 0.0316 µM, first compound 3.16 µM
[6] = second compound 0.0316 µM, first compound 10 µM
[7] = second compound 0.1 µM, first compound 0.0316 µM
[8] = second compound 0.1 µM, first compound 0.1 µM
[9] = second compound 0.1 µM, first compound 0.316 µM
[10] = second compound 0.1 µM, first compound 1 µM
[11] = second compound 0.1 µM, first compound 3.16 µM
[12] = second compound 0.1 µM, first compound 10 µM
[13] = second compound 0.316 µM, first compound 0.0316 µM
[14] = second compound 0.316 µM, first compound 0.1 µM
[15] = second compound 0.316 µM, first compound 0.316 µM
[16] = second compound 0.316 µM, first compound 1 µM
[17] = second compound 0.316 µM, first compound 3.16 µM
[18] = second compound 0.316 µM, first compound 10 µM
[19] = second compound 1 µM, first compound 0.0316 µM
[20] = second compound 1 µM, first compound 0.1 µM
[21] = second compound 1 µM, first compound 0.316 µM
[22] = second compound 1 µM, first compound 1 µM
[23] = second compound 1 µM, first compound 3.16 µM
[24] = second compound 1 µM, first compound 10 µM
[25] = second compound 3.16 µM, first compound 0.0316 µM
[26] = second compound 3.16 µM, first compound 0.1 µM
[27] = second compound 3.16 µM, first compound 0.316 µM
[28] = second compound 3.16 µM, first compound 1 µM
[29] = second compound 3.16 µM, first compound 3.16 µM
[30] = second compound 3.16 µM, first compound 10 µM
[31] = second compound 10 µM, first compound 0.0316 µM
[32] = second compound 10 µM, first compound 0.1 µM
[33] = second compound 10 µM, first compound 0.316 µM
[34] = second compound 10 µM, first compound 1 µM
[35] = second compound 10 µM, first compound 3.16 µM
[36] = second compound 10 µM, first compound 10 µM
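Also: spheroids exposed to compounds for one week.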
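For viability, T/C in this document: 100% = vehicle DMSO treated spheroids.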

`CCc1cc2c(N3CCc4c(cc(Cn5ccnc5)cc4-c4cn(C)nc4C(F)(F)F)C3=O)cc(C)nc2c(OC)n1` + COC1C(OC(N)=O)C(O)C(Oc2ccc3c(O)c(NC(=O)c4ccc(O)c(CC=C(C)C)c4)c(=O)oc3c2C)OC1(C)C was tested, and the IC50 (second compound 0.0316 µM) was > 10 µM, the IC50 (second compound 0.1 µM) was > 10 µM and the IC50 (second compound 0.316 µM) was > 10 µM. For the same compound, the IC50 (second compound 1 µM) was > 10 µM, the IC50 (second compound 3.16 µM) was > 10 µM and the IC50 (second compound 10 µM) was > 10 µM. The viability, T/C [1] was 111%, the viability, T/C [2] was 110% and the viability, T/C [3] was 94.5%. It also gave a viability, T/C [4] of 98.2%, a viability, T/C [5] of 77.7% and a viability, T/C [6] of 53.4%. For the same compound, the viability, T/C [7] was 106%, the viability, T/C [8] was 111% and the viability, T/C [9] was 97.7%. The viability, T/C [10] was 98.8%, the viability, T/C [11] was 73.7% and the viability, T/C [12] was 59.3%. The viability, T/C [13] was 112%, the viability, T/C [14] was 108% and the viability, T/C [15] was 98.7%. For the same compound, the viability, T/C [16] was 96.9%, the viability, T/C [17] was 79.5% and the viability, T/C [18] was 49.4%. The viability, T/C [19] was 124%, the viability, T/C [20] was 105% and the viability, T/C [21] was 108%. The viability, T/C [22] was 93.4%, the viability, T/C [23] was 75.5% and the viability, T/C [24] was 52.9%. It also gave a viability, T/C [25] of 109%, a viability, T/C [26] of 111% and a viability, T/C [27] of 103%. It also gave a viability, T/C [28] of 98.2%, a viability, T/C [29] of 82% and a viability, T/C [30] of 54.4%. It also gave a viability, T/C [31] of 108%, a viability, T/C [32] of 110% and a viability, T/C [33] of 98.4%. It also gave a viability, T/C [34] of 91.4%, a viability, T/C [35] of 67.3% and a viability, T/C [36] of 50.8%.
`CC(C)n1c(=O)n(C)c2cnc3cc(F)c(-c4ccc(OCCCN5CCCCC5)nc4)cc3c21` + Nc1ccc(C#CCN(C(=O)Cc2ncc(C(F)(F)F)cc2C(F)(F)F)c2ccc(F)cc2)nn1 was tested, and the IC50 (second compound 0.0316 µM) was > 10 µM, the IC50 (second compound 0.1 µM) was > 10 µM and the IC50 (second compound 0.316 µM) was > 10 µM. The IC50 (second compound 1 µM) was > 10 µM, the IC50 (second compound 3.16 µM) was > 10 µM and the IC50 (second compound 10 µM) was > 10 µM. It also gave a viability, T/C [1] of 94%, a viability, T/C [2] of 106% and a viability, T/C [3] of 103%. The viability, T/C [4] was 97.1%, the viability, T/C [5] was 87.7% and the viability, T/C [6] was 101%. The viability, T/C [7] was 99%, the viability, T/C [8] was 102% and the viability, T/C [9] was 92.2%. The viability, T/C [10] was 81.5%, the viability, T/C [11] was 72.6% and the viability, T/C [12] was 88.8%. For the same compound, the viability, T/C [13] was 90.2%, the viability, T/C [14] was 92.7% and the viability, T/C [15] was 98%. For the same compound, the viability, T/C [16] was 112%, the viability, T/C [17] was 84.9% and the viability, T/C [18] was 94.2%. It also gave a viability, T/C [19] of 109%, a viability, T/C [20] of 85.9% and a viability, T/C [21] of 93.6%. It also gave a viability, T/C [22] of 80.5%, a viability, T/C [23] of 84.9% and a viability, T/C [24] of 96.3%. The viability, T/C [25] was 112%, the viability, T/C [26] was 102% and the viability, T/C [27] was 95%. It also gave a viability, T/C [28] of 105%, a viability, T/C [29] of 83.3% and a viability, T/C [30] of 103%. The viability, T/C [31] was 85.3%, the viability, T/C [32] was 96.3% and the viability, T/C [33] was 93.3%. The viability, T/C [34] was 79.5%, the viability, T/C [35] was 93% and the viability, T/C [36] was 89.2%.
`CCc1cc2c(N3CCc4c(cc(Cn5ccnc5)cc4-c4cn(C)nc4C(F)(F)F)C3=O)ccnc2c(OC)n1` + COC1C(OC(N)=O)C(O)C(Oc2ccc3c(O)c(NC(=O)c4ccc(O)c(CC=C(C)C)c4)c(=O)oc3c2C)OC1(C)C was tested, and the IC50 (second compound 0.0316 µM) was > 10 µM, the IC50 (second compound 0.1 µM) was > 10 µM and the IC50 (second compound 0.316 µM) was > 10 µM. For the same compound, the IC50 (second compound 1 µM) was > 10 µM, the IC50 (second compound 3.16 µM) was > 10 µM and the IC50 (second compound 10 µM) was > 10 µM. It also gave a viability, T/C [1] of 111%, a viability, T/C [2] of 108% and a viability, T/C [3] of 105%. For the same compound, the viability, T/C [4] was 106%, the viability, T/C [5] was 88.7% and the viability, T/C [6] was 62.5%. For the same compound, the viability, T/C [7] was 108%, the viability, T/C [8] was 110% and the viability, T/C [9] was 109%. For the same compound, the viability, T/C [10] was 104%, the viability, T/C [11] was 92.2% and the viability, T/C [12] was 62.6%. For the same compound, the viability, T/C [13] was 117%, the viability, T/C [14] was 105% and the viability, T/C [15] was 98.4%. For the same compound, the viability, T/C [16] was 98.7%, the viability, T/C [17] was 84.8% and the viability, T/C [18] was 64.6%. For the same compound, the viability, T/C [19] was 113%, the viability, T/C [20] was 103% and the viability, T/C [21] was 96.1%. For the same compound, the viability, T/C [22] was 100%, the viability, T/C [23] was 83.5% and the viability, T/C [24] was 58.6%. The viability, T/C [25] was 117%, the viability, T/C [26] was 101% and the viability, T/C [27] was 108%. It also gave a viability, T/C [28] of 97.5%, a viability, T/C [29] of 93.1% and a viability, T/C [30] of 63.6%. It also gave a viability, T/C [31] of 112%, a viability, T/C [32] of 106% and a viability, T/C [33] of 109%. For the same compound, the viability, T/C [34] was 102%, the viability, T/C [35] was 81.6% and the viability, T/C [36] was 65%.
